In patent US11213543B2, “Human gastrointestinal microbiome modulating composition and methods of use” (priority 2011, dated 2022):
Entries after “also recorded” stand apart in the source; their conditions may differ.

How the values were obtained:
[1] = metformin without FORMULA A
Method: They were started on metformin 500 mg twice a day and was instructed to measure their fasting blood sugar on a daily basis. Over the course of 7 days they were instructed to increase metformin to 1000 mg twice a day.

[2] = cited from earlier work
[3] = set-up: key: ↑indicates an increase is reported; ↓ indicates that a decrease is reported; conditions: reported in the references of Table 6, cited from earlier work

## CN(C)C(=N)N=C(N)N [metformin]
[1]
  stools / diarrhea on metformin: persistent watery stools; also recorded: Diarrhea
[2]; approximate
  weight loss: 2 to 3 kg
[2]; compared to only 6% of diabetic patients not taking metformin
  incidence of diarrhea in diabetic patients taking the drug: 20%

## Inulin
[3]; TG is triglyceride
  Function: TG: ↓
[3]
  Function: GLP-1: ↑
  Function: PYY: ↑
  Function: ghrelin: ↓
  Function: satiety: ↑

## β-Glucan
[3]
  Function: GLP-1: ↑
  Function: LDL chol: ↓
  Function: PYY: ↑
  Function: ghrelin: ↓
  Function: hunger: ↓
  Function: satiety: ↑
